Laboratory results: the supplement of paper PMC8967900

What was measured:
Experiment in all cases: selective drug sensitivity score (sDSS, relative to normal bone marrow) (sDSS (score)); higher = more potent and effective on the cell line relative to normal bone marrow cells
Details in all cases: 72 h
[1] = tested on: SEM cells
[2] = tested on: MOLT-4
[3] = tested on: KASUMI-9
[4] = tested on: MOLT-14
[5] = tested on: KOPN-8
[6] = tested on: MHH-CALL-2
[7] = tested on: CCRF-HSB2
[8] = tested on: HAL-01
[9] = tested on: MHH-CALL-4
[10] = tested on: REH
[11] = tested on: PEER
[12] = tested on: MN-60
[13] = tested on: SUP-B15
[14] = tested on: P30-OHKUBO
[15] = tested on: HPB-ALL
[16] = tested on: TANOUE
[17] = tested on: NALL-1
[18] = tested on: COG-LL-355h
[19] = tested on: KARPAS-45
[20] = tested on: MOLT-16
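Also: ALL cell lines in 384-well plates, five doses spanning 10,000-fold, each plate scaled between vehicle and 100 µmol/L benzalkonium chloride controls, sDSS an adapted area-under-curve metric.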

SMILES | selective drug sensitivity score [1] | selective drug sensitivity score [2] | selective drug sensitivity score [3] | selective drug sensitivity score [4] | selective drug sensitivity score [5] | selective drug sensitivity score [6] | selective drug sensitivity score [7] | selective drug sensitivity score [8] | selective drug sensitivity score [9] | selective drug sensitivity score [10] | selective drug sensitivity score [11] | selective drug sensitivity score [12] | selective drug sensitivity score [13] | selective drug sensitivity score [14] | selective drug sensitivity score [15] | selective drug sensitivity score [16] | selective drug sensitivity score [17] | selective drug sensitivity score [18] | selective drug sensitivity score [19] | selective drug sensitivity score [20]
CC(=O)c1cc2c(o1)C(=O)c1ccccc1C2=O [Napabucasin] (top concentration 20000 nM) | 0.52 | -1.28 | -1.28 | -0.98 | 3.72 | 3.72 | 0.12 | -0.38 | 0.12 | -1.58 | 0.62 | -2.08 | 1.22 | 0.42 | -0.98 | -4.88 | -7.38 | -0.18 | 1.22 | 0.12
CC1(C)CCC(c2ccc(Cl)cc2)=C(CN2CCN(c3ccc(C(=O)NS(=O)(=O)c4ccc(N[C@H](CCN5CCOCC5)CSc5ccccc5)c(S(=O)(=O)C(F)(F)F)c4)cc3)CC2)C1 [Navitoclax] (top concentration 10000 nM) | 14.2 | 15.6 | 19.8 | 12.7 | 23.2 | 21.1 | 8.92 | 14.8 | 18.4 | 4.92 | 12.2 | -8.58 | 27.5 | 16.8 | 17.8 | -8.58 | 22.9 | 28.9 | 22.8 | 12.2
CC(=O)c1c(C)c2cnc(Nc3ccc(N4CCNCC4)cn3)nc2n(C2CCCC2)c1=O [Palbociclib] (top concentration 10000 nM) | 4.98 | 1.08 | 8.78 | 2.48 | 16.5 | 3.68 | 1.68 | 1.48 | -1.82 | 3.08 | 5.38 | -0.62 | 2.38 | 9.58 | 2.78 | -6.12 | -1.72 | 2.88 | 3.68 | 8.58
COc1ccc(COc2cc3oc(=O)c4cc(C(C)O)ccc4c3cc2OC)cc1 (stereo not given) [Palomid-529] (top concentration 10000 nM) | 1.76 | 2.26 | 0.66 | 2.76 | 10.3 | 1.06 | 1.46 | -0.24 | -0.24 | 6.66 | 4.16 | -0.24 | 5.26 | -0.24 | 0.76 | 0.36 | -0.04 | -0.24 | 2.76 | 4.36
FC(F)(F)c1ccc(CNc2ccc(Cc3c[nH]c4ncc(Cl)cc34)cn2)cn1 [Pexidartinib] (top concentration 10000 nM) | 12.6 | -1.92 | 1.18 | -2.02 | 0.68 | -0.92 | 1.38 | 2.08 | -2.22 | 0.38 | -0.32 | -1.52 | -0.22 | 4.48 | -1.92 | -2.22 | -1.92 | -1.92 | -0.02 | -0.72
CO[C@H](C(=O)[C@@H](O)[C@@H](C)O)[C@@H]1Cc2cc3cc(O[C@H]4C[C@@H](O[C@H]5C[C@@H](O)[C@H](O)[C@@H](C)O5)[C@@H](O)[C@@H](C)O4)c(C)c(O)c3c(O)c2C(=O)[C@H]1O[C@H]1C[C@@H](O[C@H]2C[C@@H](O[C@H]3C[C@](C)(O)[C@H](O)[C@@H](C)O3)[C@H](O)[C@@H](C)O2)[C@H](O)[C@@H](C)O1 [Plicamycin] (top concentration 10000 nM) | -16.6 | -6.26 | -17.5 | -10.3 | -17.8 | -6.26 | -5.26 | -17.9 | -7.26 | -13.4 | -12.8 | 5.34 | -15.6 | -16.3 | 7.44 | -14.4 | -17 | -15.4 | -11.1 | -5.06
Cn1cc(CNCC2CCN(c3ncc(C(=O)NO)cn3)CC2)c2ccccc21 [Quisinostat] (top concentration 1000 nM) | 6.38 | 2.98 | 9.78 | 6.98 | 10.5 | 8.28 | 1.28 | -5.02 | 5.98 | -1.12 | 2.88 | -2.02 | 10.1 | 7.18 | 6.88 | -7.62 | -0.72 | 6.38 | 8.18 | 6.28
CC(C)(C)Cn1c(N)nc2ccc(-c3[nH]c(C(C)(C)C)nc3-c3ccc(F)cc3)nc21 [Ralimetinib] (top concentration 10000 nM) | 1.76 | 8.36 | 8.76 | 6.96 | 4.26 | 1.46 | 1.26 | -0.74 | -0.84 | 2.36 | 2.26 | -0.14 | 7.36 | 4.66 | 3.66 | -0.44 | -0.84 | 7.86 | 5.36 | 12.6
O=C(CCCCCCNC(=O)c1cnc(N(c2ccccc2)c2ccccc2)nc1)NO [Rocilinostat] (top concentration 10000 nM) | 4.74 | 5.04 | 6.64 | 8.44 | 13.8 | 11.2 | 6.54 | -0.56 | 3.74 | 6.04 | 7.14 | 1.04 | 5.64 | 5.04 | 5.54 | -0.26 | -0.66 | 4.84 | 10 | 6.94
CN1CCC(CNc2ccc3ncc(-c4cccc(OC(F)(F)F)c4)n3n2)CC1 [SGI-1776] (top concentration 10000 nM) | 6.92 | -2.88 | -1.68 | 0.32 | -0.78 | 1.22 | 3.12 | 1.92 | 0.32 | -2.78 | -0.58 | -3.78 | -0.88 | 0.12 | -4.08 | -8.18 | -2.18 | 1.72 | -2.08 | -3.28
O=C(/C=C\n1cnc(-c2cc(C(F)(F)F)cc(C(F)(F)F)c2)n1)NNc1cnccn1 [Selinexor] (top concentration 10000 nM) | 5.38 | 13.2 | 7.98 | 16.7 | 17.1 | 7.48 | 14.8 | 9.08 | 5.18 | 10.3 | 10.2 | 3.58 | 16.3 | 9.28 | 3.78 | -7.02 | 2.98 | 11.9 | 10.9 | 13.9
Cn1cnc2c(F)c(Nc3ccc(Br)cc3Cl)c(C(=O)NOCCO)cc21 [Selumetinib] (top concentration 10000 nM) | -0.3 | -3.7 | 2.2 | 7.2 | 7 | 8.5 | 0.8 | 11 | 4.2 | -4.1 | -1.6 | -4.1 | 5.4 | -2.1 | -4.1 | -4.1 | -4.1 | 4.7 | -3.8 | -3.4
COCC[n+]1c2c(n(Cc3cnccn3)c1C)C(=O)c1ccccc1C2=O [Sepantronium_bromide] (top concentration 10000 nM) | 13.3 | 15.9 | 16.2 | 12.5 | 22.8 | 22.8 | 14.6 | -12.6 | 19.4 | 17.8 | 15.1 | 21.2 | 22.3 | 22.8 | 6.34 | 14.7 | 16.2 | 15.5 | 11 | 12.7
O=C(O)c1ccc2c(c1)nc(Nc1cccc(Cl)c1)c1ccncc12 [Silmitasertib] (top concentration 10000 nM) | 1.4 | 0.6 | 3.3 | 4.1 | 11.4 | 6.6 | 4.4 | 3.8 | 2.2 | 4.8 | 3.6 | 3.7 | 3 | 1.8 | 1.9 | -0.3 | 2.2 | 6.3 | 4.1 | 4.8
CO[C@H]1C[C@@H]2CC[C@@H](C)[C@@](O)(O2)C(=O)C(=O)N2CCCC[C@H]2C(=O)O[C@H]([C@H](C)C[C@@H]2CC[C@@H](O)[C@H](OC)C2)CC(=O)[C@H](C)/C=C(\C)[C@@H](O)[C@@H](OC)C(=O)[C@H](C)C[C@H](C)/C=C/C=C/C=C/1C [Sirolimus] (top concentration 100 nM) | 1.34 | -2.46 | 4.74 | -2.96 | 17.9 | 0.84 | 3.14 | 0.44 | -0.76 | 0.54 | 3.74 | 0.44 | 5.04 | 1.34 | -2.46 | -3.76 | -3.66 | -0.66 | -0.16 | 5.04
COCCNCc1ccc(-c2cc3nccc(Oc4ccc(NC(=O)C5(C(=O)Nc6ccc(F)cc6)CC5)cc4F)c3s2)nc1 [Sitravatinib] (top concentration 2500 nM) | 26.2 | 0.78 | 3.58 | 1.08 | 8.08 | 6.78 | 9.28 | 5.28 | 5.48 | 2.88 | 7.38 | 0.78 | 8.68 | 5.78 | -0.42 | -0.42 | 9.38 | 2.58 | 3.78 | -0.42
CCN(CC)CCNC(=O)c1c(C)[nH]c(/C=C2\C(=O)Nc3ccc(F)cc32)c1C [Sunitinib] (top concentration 1000 nM) | 15.3 | -0.94 | 0.66 | 0.76 | -1.44 | 1.86 | 1.36 | 3.36 | 2.06 | -1.44 | -0.24 | -1.44 | 6.86 | 0.76 | -1.44 | -1.44 | -1.44 | 5.66 | -0.64 | -1.44
